Data reported in US10407425B2, “Indazole inhibitors of the Wnt signal pathway and therapeutic uses thereof” (Samumed, LLC, priority 2012, dated 2019).

tested on: Wnt activity; assay: Wnt activity reporter assay (SP5 promoter firefly luciferase in SW480 cells); assay type: cell-based; settings: Homo sapiens; SW480 cells bearing SP5 promoter luciferase reporter; 24 h after compound addition; read-out: Wnt inhibition
Source text: The above synthesized compounds were screened using the assay procedure for Wnt activity described below.
Reporter cell lines can be generated by stably transducing cells of cancer cell lines (e.g., colon cancer) with a lentiviral construct that include a wnt-responsive promoter driving expression of the firefly luciferase gene.
Lentiviral constructs can be made in which the SP5 promoter, a promoter having eight TCF/LEF binding sites derived from the SP5 promoter, is linked upstream of the firefly luciferase gene. The lentiviral constructs can also include a hygromycin resistance gene as a selectable marker. The SP5 promoter construct can be used to transduce SW480 cells, a colon cancer cell line having a mutated APC gene that generates a truncated APC protein, leading to de-regulated accumulation of β-catenin.
Cultured SW480 cells bearing a reporter construct can be distributed at approximately 10,000 cells per well into 384 well multiwell plates. Compounds from a small molecule compound library can then be added to the wells in half-log dilutions using a three micromolar top concentration. A series of control wells for each cell type receive only buffer and compound solvent. Twenty-four hours after the addition of compound, reporter activity for luciferases can be assayed, for example, by addition of the BrightGlo luminescence reagent (Promega) and the Victor3 plate reader (Perkin Elmer). Readings can be normalized to DMSO only treated cells, and normalized activities can then be used in the IC50 calculations.

Row | SMILES | IC50
1 | CC(C)Nc1cncc(-c2ccc3[nH]nc(-c4nc5c(-c6ccccc6F)cncc5[nH]4)c3c2)c1 [Compound 124, 5-(3-(7-(2-Fluorophenyl)-3H-imidazo[4,5-c]pyridin-2-yl)-1H-indazol-5-yl)-N-isopropylpyridin-3-amine] | 1 nM
2 | FC1(F)CCN(Cc2cncc(-c3ccc4[nH]nc(-c5nc6c(N7CCCCC7)cncc6[nH]5)c4c3)c2)C1 [Compound 342, 2-(5-(5-((3,3-Difluoropyrrolidin-1-yl)methyl)pyridin-3-yl)-1H-indazol-3-yl)-7-(piperidin-1-yl)-3H-imidazo[4,5-c]pyridine] | 20 nM
3 | c1ncc(-c2ccc3[nH]nc(-c4nc5c(N6CCCCC6)cncc5[nH]4)c3c2)cc1CN1CCCC1 [Compound 211, 7-(Piperidin-1-yl)-2-(5-(5-(pyrrolidin-1-ylmethyl)pyridin-3-yl)-1H-indazol-3-yl)-3H-imidazo[4,5-c]pyridine] | 420 nM
4 | CC(C)CC(=O)Nc1cncc(-c2ccc3[nH]nc(-c4nc5c(-c6cccs6)cncc5[nH]4)c3c2)c1 [Compound 397, 3-Methyl-N-(5-(3-(7-(thiophen-2-yl)-3H-imidazo[4,5-c]pyridin-2-yl)-1H-indazol-5-yl)pyridin-3-yl)butanamide] | 0.1 nM
5 | CC(C)CC(=O)Nc1cncc(-c2ccc3[nH]nc(-c4nc5c(-c6cc(F)cc(CNS(C)(=O)=O)c6)cncc5[nH]4)c3c2)c1 [Compound 373, N-(5-(3-(7-(3-Fluoro-5-(methylsulfonamidomethyl)phenyl)-3H-imidazo[4,5-c]pyridin-2-yl)-1H-indazol-5-yl)pyridin-3-yl)-3-methylbutanamide] | 5 nM
6 | c1cc(-c2cncc3[nH]c(-c4n[nH]c5ccc(-c6cncc(CN7CCCC7)c6)cc45)nc23)ccn1 [Compound 163, 7-(Pyridin-4-yl)-2-(5-(5-(pyrrolidin-1-ylmethyl)pyridin-3-yl)-1H-indazol-3-yl)-3H-imidazo[4,5-c]pyridine] | 296 nM
7 | CC(C)(C)C(=O)Nc1cncc(-c2ccc3[nH]nc(-c4nc5c(-c6ccoc6)cncc5[nH]4)c3c2)c1 [Compound 319, N-(5-(3-(7-(Furan-3-yl)-3H-imidazo[4,5-c]pyridin-2-yl)-1H-indazol-5-yl)pyridin-3-yl)pivalamide] | 5 nM
8 | CC(C)(C)C(=O)Nc1cncc(-c2ccc3[nH]nc(-c4nc5c(N6CCCCC6)cncc5[nH]4)c3c2)c1 [Compound 205, N-(5-(3-(7-(Piperidin-1-yl)-3H-imidazo[4,5-c]pyridin-2-yl)-1H-indazol-5-yl)pyridin-3-yl)pivalamide] | 41 nM
9 | CC(C)C(=O)Nc1cncc(-c2ccc3[nH]nc(-c4nc5ccncc5[nH]4)c3c2)c1 [Compound 9, N-(5-(3-(3H-imidazo[4,5-c]pyridin-2-yl)-1H-indazol-5-yl)pyridin-3-yl)isobutyramide] | 400 to 630 nM
10 | CN1CCN(c2cncc3[nH]c(-c4n[nH]c5ccc(-c6cncc(NC(=O)CC(C)(C)C)c6)cc45)nc23)CC1 [Compound 257, 3,3-Dimethyl-N-(5-(3-(7-(4-methylpiperazin-1-yl)-3H-imidazo[4,5-c]pyridin-2-yl)-1H-indazol-5-yl)pyridin-3-yl)butanamide] | 95 nM
11 | Cc1ccncc1-c1ccc2[nH]nc(-c3nc4c(-c5ccncc5)cncc4[nH]3)c2c1 [Compound 154, 2-(5-(4-Methylpyridin-3-yl)-1H-indazol-3-yl)-7-(pyridin-4-yl)-3H-imidazo[4,5-c]pyridine] | 373 nM
12 | O=C(Nc1cncc(-c2ccc3[nH]nc(-c4nc5ccncc5[nH]4)c3c2)c1)C1CC1 [Compound 283, N-(5-(3-(3H-Imidazo[4,5-c]pyridin-2-yl)-1H-indazol-5-yl)pyridin-3-yl)cyclopropanecarboxamide] | 8 nM
13 | CC(C)(C)CC(=O)Nc1cncc(-c2ccc3[nH]nc(-c4nc5ccncc5[nH]4)c3c2)c1 [Compound 280, N-(5-(3-(3H-Imidazo[4,5-c]pyridin-2-yl)-1H-indazol-5-yl)pyridin-3-yl)-3,3-dimethylbutanamide] | 21 nM
14 | CCC(=O)Nc1cncc(-c2ccc3[nH]nc(-c4nc5c(-c6cncc(F)c6)cncc5[nH]4)c3c2)c1 [Compound 20, N-(5-(3-(7-(5-fluoropyridin-3-yl)-3H-imidazo[4,5-c]pyridin-2-yl)-1H-indazol-5-yl)pyridin-3-yl)propionamide] | 1.4 to 1.8 nM
15 | CCCCC(=O)Nc1cncc(-c2ccc3[nH]nc(-c4nc5c(-c6ccoc6)cncc5[nH]4)c3c2)c1 [Compound 329, N-(5-(3-(7-(Furan-3-yl)-3H-imidazo[4,5-c]pyridin-2-yl)-1H-indazol-5-yl)pyridin-3-yl)pentanamide] | 4 nM
16 | Nc1cncc(-c2ccc3[nH]nc(-c4nc5ccncc5[nH]4)c3c2)c1 [Compound 268, 5-(3-(3H-Imidazo[4,5-c]pyridin-2-yl)-1H-indazol-5-yl)pyridin-3-amine] | > 10000 nM

Row | SMILES | IC50
17 | CC(C)(C)C(=O)Nc1cncc(-c2ccc3[nH]nc(-c4nc5c(-c6ccc(F)cc6)cncc5[nH]4)c3c2)c1 [Compound 102, N-(5-(3-(7-(4-Fluorophenyl)-3H-imidazo[4,5-c]pyridin-2-yl)-1H-indazol-5-yl)pyridin-3-yl)pivalamide] | 4 nM
18 | CN1CCN(c2cncc3[nH]c(-c4n[nH]c5ccc(-c6cncc(N)c6)cc45)nc23)CC1 [Compound 247, 5-(3-(7-(4-Methylpiperazin-1-yl)-3H-imidazo[4,5-c]pyridin-2-yl)-1H-indazol-5-yl)pyridin-3-amine] | 2 nM
19 | CCCC(=O)Nc1cncc(-c2ccc3[nH]nc(-c4nc5c(N6CCCCC6)cncc5[nH]4)c3c2)c1 [Compound 214, N-(5-(3-(7-(Piperidin-1-yl)-3H-imidazo[4,5-c]pyridin-2-yl)-1H-indazol-5-yl)pyridin-3-yl)butyramide] | 42 nM
20 | Fc1ccccc1-c1cncc2[nH]c(-c3n[nH]c4ccc(-c5cncc(CN6CCCCC6)c5)cc34)nc12 [Compound 127, 7-(2-Fluorophenyl)-2-(5-(5-(piperidin-1-ylmethyl)pyridin-3-yl)-1H-indazol-3-yl)-3H-imidazo[4,5-c]pyridine] | 14 nM
21 | c1cncc(-c2ccc3[nH]nc(-c4nc5c(N6CCOCC6)cncc5[nH]4)c3c2)c1 [Compound 6, 4-(2-(5-(pyridin-3-yl)-1H-indazol-3-yl)-3H-imidazo[4,5-c]pyridin-7-yl)morpholine] | 10 to 13 nM
22 | CN1CCN(c2cncc3[nH]c(-c4n[nH]c5ccc(-c6cncc(NC(=O)C7CCCCC7)c6)cc45)nc23)CC1 [Compound 263, N-(5-(3-(7-(4-Methylpiperazin-1-yl)-3H-imidazo[4,5-c]pyridin-2-yl)-1H-indazol-5-yl)pyridin-3-yl)cyclohexanecarboxamide] | 86 nM
23 | Fc1cccc(-c2cncc3[nH]c(-c4n[nH]c5ccc(-c6cncc(CN7CCC(F)(F)C7)c6)cc45)nc23)c1 [Compound 336, 2-(5-(5-((3,3-Difluoropyrrolidin-1-yl)methyl)pyridin-3-yl)-1H-indazol-3-yl)-7-(3-fluorophenyl)-3H-imidazo[4,5-c]pyridine] | 55 nM
24 | CN1CCN(c2cncc3[nH]c(-c4n[nH]c5ccc(-c6cncc(NC(=O)Cc7ccccc7)c6)cc45)nc23)CC1 [Compound 252, N-(5-(3-(7-(4-Methylpiperazin-1-yl)-3H-imidazo[4,5-c]pyridin-2-yl)-1H-indazol-5-yl)pyridin-3-yl)-2-phenylacetamide] | 650 nM
25 | O=C(Nc1cncc(-c2ccc3[nH]nc(-c4nc5c(-c6ccoc6)cncc5[nH]4)c3c2)c1)C1CCCCC1 [Compound 333, N-(5-(3-(7-(Furan-3-yl)-3H-imidazo[4,5-c]pyridin-2-yl)-1H-indazol-5-yl)pyridin-3-yl)cyclohexanecarboxamide] | 26 nM
26 | CCC(=O)Nc1cncc(-c2ccc3[nH]nc(-c4nc5c(-c6cccc(F)c6)cncc5[nH]4)c3c2)c1 [Compound 24, N-(5-(3-(7-(3-Fluorophenyl)-3H-imidazo[4,5-c]pyridin-2-yl)-1H-indazol-5-yl)pyridin-3-yl)propionamide] | 66 nM
27 | CN(C)Cc1cncc(-c2ccc3[nH]nc(-c4nc5c(N6CCN(C)CC6)cncc5[nH]4)c3c2)c1 [Compound 3, N,N-dimethyl-1-(5-(3-(7-(4-methylpiperazin-1-yl)-3H-imidazo[4,5-c]pyridin-2-yl)-1H-indazol-5-yl)pyridin-3-yl)methanamine] | 83 to 179 nM
28 | O=C(Cc1ccccc1)Nc1cncc(-c2ccc3[nH]nc(-c4nc5ccncc5[nH]4)c3c2)c1 [Compound 274, N-(5-(3-(3H-Imidazo[4,5-c]pyridin-2-yl)-1H-indazol-5-yl)pyridin-3-yl)-2-phenylacetamide] | > 10000 nM
29 | CC(C)(C)CC(=O)Nc1cncc(-c2ccc3[nH]nc(-c4nc5c(-c6ccsc6)cncc5[nH]4)c3c2)c1 [Compound 304, 3,3-Dimethyl-N-(5-(3-(7-(thiophen-3-yl)-3H-imidazo[4,5-c]pyridin-2-yl)-1H-indazol-5-yl)pyridin-3-yl)butanamide] | 3 nM
30 | CC(C)CC(=O)Nc1cncc(-c2ccc3[nH]nc(-c4nc5c(-c6ccc(F)cc6)cncc5[nH]4)c3c2)c1 [Compound 12, N-(5-(3-(7-(4-fluorophenyl)-3H-imidazo[4,5-c]pyridin-2-yl)-1H-indazol-5-yl)pyridin-3-yl)-3-methylbutanamide] | 6 to 8 nM
31 | CN(C)c1cncc(-c2ccc3[nH]nc(-c4nc5c(-c6ccsc6)cncc5[nH]4)c3c2)c1 [Compound 295, N,N-Dimethyl-5-(3-(7-(thiophen-3-yl)-3H-imidazo[4,5-c]pyridin-2-yl)-1H-indazol-5-yl)pyridin-3-amine] | 3 nM
